One assay has as its system IL-6. The assay can be described thus: Estimation of IL-6 in adipocyte supernatant by ELISA. It counts as cell-based. To be noted: human adipocytes. As for the experimental part: 3T3-L1 cells approximately 60×10^4 cells are seeded for 48-72 hrs to get 70-80% confluence. After 48 hrs 200 μl of AIM (Adipogenesis induction medium) freshly prepared is added. 72 hrs later 200 μl APM (Adipogenesis progression medium) with the test compounds in different concentrations is added to the wells. The cells are incubated for 48 hrs in a humidified atmosphere (37° C.) of 5% CO2 and 95% air. The supernatant is collected and stored for the estimation of leptin, adiponectin, IL-6 and TNF-α by ELISA. Cells are fixed by adding 100 μl of 10% formalin and ORO staining is done. OD is read at 492 nm in microplate reader. The results are expressed as IC50 values using Graphpad prism software.
The percentage of inhibition of adipogenesis is calculated as follows, % inhibition=C−T/[…] Where C-absorbance of Oil red 0 in differentiating/undifferentiated cells T-absorbance of Oil Red-O in sample treated differentiating/undifferentiated cells. The estimation of leptin, adiponectin, IL-6 and TNF-α is done according to user's manual from R&D Systems.

The test system of the next assay is 3T3-L1 preadipocytes. Put plainly: Differentiation and adipogenesis of 3T3-L1 preadipocytes, Oil Red O (Example IV). It counts as cell-based, Mouse. To be noted: 5, 10, 15, 20, 25 and 30 μM for 8 days. The protocol:
Mouse 3T3-L1 pre-adipocytes purchased from the American Type Culture Collection (Rockville, Md.) were grown in Dulbecco's Modified Eagle's Medium (DMEM) supplemented with 2 mM glutamine (GIBCO BRL), 1% penicillin/streptomycin (10000 units of penicillin/mL and 10 mg streptomycin/mL) and 10% fetal calf serum (FCS) at 37° C. under a humidified 5% CO2 atmosphere. Briefly, cells were seeded into 24-well (2×10^4/mL) or 10 cm dish with DMEM containing 10% fetal bovine serum (FBS) to full confluence. […]
At the end of differentiation, cells were washed twice with phosphate-buffered saline (PBS), fixed with 10% formalin for 60 min, stained with 0.5% Oil Red O in isopropanol for 1 h at room temperature. […] To quantify lipid accumulation, the stained lipid droplets were dissolved in isopropanol and the absorbance was measured at 520 nm.
Differentiation of 3T3-L1 preadipocytes stained with Oil Red O and photographed (upper and middle). 3T3-L1 preadipocytes were incubated with MDI (DMEM with IBMX, DEX, and insulin) for 2 days and then replaced with DMEM containing insulin with or without Calebin A (0, 5, 10, 15, 20, 25 and 30 μM), respectively, for 8 days, Lipid content was extracted from Oil Red O stained cells by 2-propanol and quantified by spectrophotometric analysis at 520 nm.

Assay [1] relates to epididymal fat (adipocytes). The assay can be described thus: Adipocyte size in epididymal fat of HFD mice (H&E histology). It counts as in vivo, C57BL/6J mice. The note with it: Calebin A 0.25% and 1%, 12 weeks. The protocol: Fully differentiated adipocytes (8 days) previously untreated with Calebin A as described in procedural steps outlined in Example IV were treated with Calebin A at concentrations of 5-30 μM. Lipolysis was linked to the breakdown of lipids into glycerol that was released into the cell culture medium and detected thereof. […] Thus, in another most preferred embodiment, the present invention relates to a method of inducing lipolysis in mammalian adipocytes, said method comprising the step of treating mammalian adipocytes with varying concentrations of Calebin A to bring about the effect of dose dependant lipolysis in said adipocytes. […] Epididymal fat pads were dissected and fixed in 10% buffered formalin for at least 24 hours, then dehydrated with a sequence of ethanol solutions and processed for embedding in paraffin. Sections of 5-6 μm in thickness were cut, de-paraffinized, rehydrated, stained with haematoxylin & eosin (H&E) and subjected to photomicroscopic assessment. Adipocyte size was determined using a Nikon light microscope (Japan) equipped with an ocular micrometer at 200× magnification in 10 random fields per section. […]

Assay [2] relates to HFD induced hepatic steatosis. Put plainly: Liver histopathology and hepatic triglyceride in HFD-fed mice. It counts as in vivo, C57BL/6J mice. To be noted: Calebin A 0.25% and 1% in HFD, dose dependant. As for the experimental part:
A portion of the livers in different groups were dissected and fixed in 10% buffered formalin for at least 24 hours, then dehydrated with a sequence of ethanol solutions and processed for embedding in paraffin. Sections of 5-6 μm in thickness were cut, deparaffinized, rehydrated, stained with haematoxylin & eosin (H&E) and subjected to pbotomicroscopic assessment. Liver histopathology was evaluated according to the NAFLD system outlined in Kleiner, D. E., Brunt, E. M., Van, N. M., Behling, C. et al., Design and validation of a histological scoring system for nonalcoholic fatty liver disease. Hepatology 2005, 41, 1313-1321. The score of hepatocellular ballooning was graded 0-2 based on the number of balloon cell per field at ×200 magnification (grading: 0=no balloon cell; 1=few balloon cells; 2=prominent balloon cells) in H&E stained sections. The number of infiltrating immune cells was counted at 200× magnification in five different areas. In the HFD group significant inflammatory degeneration, hepatocellular ballooning degeneration and triglyceride accumulation were seen. Quantitative analysis indicated elevated hepatic triglyceride levels as compared to the ND group. Administration of Calebin A at concentrations of 0.25% and 1% attenuated HFD induced triglyceride, hepatocellular ballooning degeneration and inflammatory infiltration in a dose dependant manner. Accordingly, in another most preferred embodiment, the present invention relates to a method of treating high fat diet (HFD) induced hepatic steatosis in mammals, said method comprising step of bringing into contact HFD affected hepatic cells marked by inflammatory infiltration, hepatocellular ballooning degeneration and high triglyceride levels with Calebin A derived from orally administering to said mammals effective concentrations of Calebin A to bring about the effect of attenuation of hepatic steatosis in a dose dependant manner. Alternatively, in another most preferred embodiment, the present invention also relates to Calebin A for treating high fat diet (HFD) induced hepatic steatosis in mammals.

These results are taken from patent US9737502B2, “Calebin A for hepatic steatosis” (SAMI LABS LIMITED, priority 2011, dated 2017).

With `COc1cc(/C=C/C(=O)COC(=O)/C=C/c2ccc(O)c(OC)c2)ccc1O` [Calebin A], the “percentage inhibition of IL-6” value in the assay with IL-6 (0.5 μg/ml) was 21.31%; in the assay on IL-6 (1.0 μg/ml), 32.37%; with IL-6 (2.0 μg/ml), 31.7%. Also, the “differentiation and adipogenesis of 3T3-L1 preadipocytes” value with 3T3-L1 preadipocytes is “inhibits”. In addition, in assay [1], the size of adipocytes result is given as “remarkable reduction”. The “HFD induced hepatic triglyceride” value in assay [2] is “attenuated”. Besides, the “inflammatory infiltration in liver” value in assay [2] (H&E) is recorded as “attenuated”. The hepatocellular ballooning degeneration entry in assay [2] (H&E, NAFLD scoring) is “attenuated”.
